Measurements reported in ChEMBL document CHEMBL5729371, “Compound functioning as bromodomain protein inhibitor, and composition” (2022).

Legend:
[1] = target: T1, Bromodomain-containing protein 4 (Homo sapiens, UniProt O60885); test: (§1) Inhibitory Activity Assay: The assays of BRD4 (D1) and BRD4 (D2) were conducted in a 384-well polystyrene plate. The test compounds were first serially diluted in DMSO and the test compound/DMSO were transferred to 384-well plates. The final concentration of DMSO in the assay was 0.1%. 2 volumes of protein/peptide mixture were added into 384-well plates, then 2 volumes of assay mixture were added, and shake for 30 s. The plate was incubated at room temperature for 2 h. Then the HTRF signal on EnVision was readed.
[2] = target: T1, Bromodomain-containing protein 4; test: as §1; remark: listed apart in the source

SMILES: Cc1nc2ncc(-c3cn(C)c(=O)c4[nH]ccc34)nc2n1Cc1ccc(Cl)cc1
- IC50 [1]: 6.9 nM
- IC50 [2]: 1.7 nM

SMILES: CCS(=O)(=O)Nc1cc(-c2cn(C)c(=O)c3[nH]ccc23)cc2c1nc(C)n2Cc1ccc(Cl)cc1
- IC50 [1]: 1 nM
- IC50 [2]: 0.4 nM

SMILES: Cc1nc2ncc(-c3cn(C)c(=O)c4[nH]ccc34)cc2n1Cc1cccc(Cl)c1
- IC50 [1]: 4.2 nM
- IC50 [2]: 1.4 nM
